Results: PMC12540922, “Selective Antimicrobial and Cytotoxic Effects of Hop Compounds to Combat Poultry Antimicrobial Resistance” (MicrobiologyOpen, 2025)
Converted amounts (≈) assume the structure as drawn. “Also recorded” adds a separate entry of the source. Counter-ions that a name gives are not always drawn.

What was measured:
[1] = system: M. luteus; set-up: method as in Seniya et al. [2012]; conditions: against M. luteus; ref Seniya et al. [2012]; cited from earlier work
[2] = MTT based cell viability assay (cytotoxic activity); conditions: chicken, UMNSAH/DF-1 chicken fibroblast cells, UMNSAH/DF-1, 48 h treatment, mean ± SD
Method: UMNSAH/DF‐1 cell line was purchased from Cytion (Eppelheim, Germany). The cells were maintained in Dulbecco's Modified Eagle Medium (DMEM, Sigma‐Aldrich, St. Louis, USA) containing 10% heat‐inactivated fetal bovine serum (FBS, Sigma‐Aldrich, St. Louis, USA) and cultured at 37°C and 5% CO2 in a humidified atmosphere. Cell lines were serially passaged after being detached with Accutase solution (Sigma‐Aldrich, St. Louis, USA).
The hop compounds were investigated for their cytotoxic effect on the chicken cell line UMNSAH/DF‐1, using the 3‐(4,5‐dimehtylthiazol‐2‐yl)‐2,5‐diphenyltetrazolium bromide (MTT) based cell viability assay. Cells were seeded in 96‐well microtiter plates (Sarstedt, Nümbrecht, Germany) with a cell density of 0.05 × 10^6 cells per mL and 100 µL per well and incubated for 24 h (37°C, 5% CO2). After that the medium was discarded and a dilution series of hop compounds in DMEM was added to the wells (100 µL), ranging from theoretical concentrations of 200 µg mL^−1 to 20 ng mL^−1. For vitality control, 20% dimethyl sulfoxide (DMSO) (TH Geyer, Renningen, Germany) was added, and for growth control, culture medium was added. The cytotoxic measurements were also performed with gentamicin sulfate as a control. Treated cells were further incubated for 48 h (37°C, 5% CO2). […] Means and SDs were calculated from two biological duplicates, each consisting of three technical replicates.

[3] = system: Micrococcus luteus (DSM 1605); assay: Broth dilution assay, antibacterial activity; type: cell-based; conditions: for MIC50: Micrococcus luteus, DSM1605, M. luteus, concentration inhibiting 50% of growth rate, NB medium, 37°C, 24 h, mean ± SD
Method: Micrococcus luteus (DSM 1605) was obtained from DSMZ (German Collection of Microorganisms and Cell Cultures GmbH). It was cultured on nutrient agar or in nutrient broth (NB, DSMZ #1) containing 5 g L^−1 peptone from casein (Carl Roth, Karlsruhe, Germany) and 3 g L^−1 meat extract (Carl Roth, Karlsruhe, Germany) under aerobic conditions at 37°C.
(§1) Antibacterial activity of hop compounds against Gram‐positive M. luteus and B. subtilis was analyzed using Broth Dilution Assay. Twofold dilutions of hop compounds were prepared in NB or TSB medium, ranging from theoretical concentrations of 500 to 0.5 µg mL^−1 and transferred to 48‐well microtiter plates (Sarstedt, Nuembrecht, Germany). Gentamicin sulfate was used as a positive control. The optical density (OD) of a preculture prepared on the previous day was measured at 600 nm in a spectrophotometer (Implen, Muenchen, Germany). The inoculum was then diluted with NB or TSB medium to the desired OD600 nm of 0.1 and transferred to all wells (150 µL) except the sterile control, which consists only of medium. The ODs of the cultures were measured every hour at 750 nm using a plate reader (Tecan, Maennedorf, Switzerland) for 24 h. In the meantime, the plates were incubated at 37°C or 28°C without shaking. The chosen wavelength of 750 nm resulted from previous experiments with hop extracts to avoid an overlap of the absorption spectrum with chlorophyll (Guidi et al. [2017]). The growth rates were obtained from the exponential range of the generated growth curves. All values were normalized to the growth control (without hop compounds). MIC50 (minimum concentration of a substance that inhibits the growth of 50% of the bacteria tested) values were calculated by nonlinear regression using GraphPad Prism model “log(inhibitor) versus response,” where the basal response was subtracted and the bottom was set to a constant value (0). Means and standard deviations (SDs) were calculated from two biological duplicates, each consisting of three technical replicates.

[4] = system: Bacillus subtilis (DSM 23778); assay: Broth dilution assay, antibacterial activity; type: cell-based; conditions: for MIC50: Bacillus subtilis, DSM23778, B. subtilis, concentration inhibiting 50% of growth rate, TSB medium, 28°C, 24 h, mean ± SD; for Selectivity index (SI), quotient of IC50 and MIC50: IC50 UMNSAH/DF-1 / MIC50 B. subtilis
Method: Bacillus subtilis (DSM 23778) was obtained from DSMZ (German Collection of Microorganisms and Cell Cultures GmbH). It was cultured on tryptic soy broth (TSB, DSMZ #545) agar plates or in TSB containing 17 g L^−1 peptone from casein, 3 g L^−1 peptone from soy, 2.5 g L^−1 D‐(+)‐glucose, 5 g L^−1 NaCl, and 2.5 g L^−1 K2HPO4 (Carl Roth, Karlsruhe, Germany) under aerobic conditions at 28°C.
as §1

[5] = Solubility of hop compounds in aqueous media (HPLC of supernatant); type: physicochemical; conditions: 10% (v/v) ethanol; for Solubility in aqueous medium (in words): DMEM with/without 10% FBS, NB, TSB, theoretical 1 mg mL^−1; for solubility: culture media DMEM, NB and TSB, aqueous with cosolvent or surfactant or cyclodextrin, kinetic from dmso stock, in the media selected (DMEM, NB, TSB), read-out: Solubility limit
Method: High‐performance liquid chromatography (HPLC) measurements were performed using an NUCLEODUR C18 Gravity‐SB (3 µm, 250 × 2 mm) column equipped with a precolumn (Machery Nagel, Düren, Germany) in a Shimadzu HPLC system (Kyoto, Japan). The flow rate was set to 0.6 mL min^−1 at 40°C using 80% methanol/20% phosphoric acid (0.5% [v/v] in H2O) as mobile phase. Media samples were 10‐fold diluted in the mobile phase, incubated for 10 min at 40°C and centrifuged at 10,000g for 10 min. 10 μL of filtered (polytetrafluoroethylene, 0.2 µm) samples was injected for analysis. Identification and quantification of isoxanthohumol, xanthohumol, co‐/n‐/adhumulone, co‐/n‐/adlupulone, and co‐/n‐/adisohumulone by a UV‐Detector (314 nm for 0–24 min, and 270 nm for 24.01–45 min) were performed by corresponding standard curves. The preparation of hop compound solutions was carried out analogously for all three media NB, TSB, and DMEM for use in bacterial and avian cell culture. Hop compounds were provided by Hopsteiner (Mainburg, Germany) in the following purities: isoxanthohumol (81.0%), xanthohumol (90.0%), humulone (88.5%), lupulone (74.3%), and isohumulone (91.0%). The hop compounds were dissolved in ethanol to 10 mg mL^−1. From this stock solution, 1:10 dilutions were prepared in the respective medium, resulting in precipitation due to their hydrophobic character. After centrifugation (10,000g, 10 min), the clear supernatant was transferred to a new tube and used for further experiments. […] This is why the actual concentration of the compounds in the aqueous medium was analyzed using HPLC and used for subsequent calculations. Due to the hydrophobic character of hop pure compounds, a complete dissolution in an aqueous medium cannot be assumed. […] To assess the influence of FBS on solubility, DMEM without serum was also tested. For humulone, lupulone, and isohumulone, the three derivatives (co‐/n‐/ad‐) are considered together in this figure and also in the following.

[6] = system: human prostate (PC3) and colon (HT29) cancer cell lines; set-up: method as in Farag and Wessjohann [2013]; conditions: ref Farag and Wessjohann [2013]; cited from earlier work
[7] = system: A-2780 ovarian cancer cell line; set-up: method as in Miranda et al. [1999]; conditions: ref Miranda et al. [1999], cited from earlier work
[8] = system: MCF-7 breast cancer cell line; set-up: method as in Miranda et al. [1999]; conditions: ref Miranda et al. [1999], cited from earlier work
[9] = system: normal human fibroblasts (BJ cells); set-up: method as in Klimek et al. ([2021]); conditions: ref Klimek et al. ([2021]); cited from earlier work
[10] = system: normal murine hepatocytes (AML 12 cell line); set-up: method as in Ho et al. [2008]; conditions: ref Ho et al. [2008]; cited from earlier work
[11] = read-out: IC50 (antiproliferative effect)

Question: With `CC1(C)S[C@@H]2[C@H](NC(=O)[C@H](N)c3ccccc3)C(=O)N2[C@H]1C(=O)O` [ampicillin] as the molecule, how does the MIC90 [1] read?
Answer: 2500 µg/mL (≈ 7150 µM)

Question: For `CO/N=C(\C(=O)N[C@@H]1C(=O)N2C(C(=O)O)=C(CSc3nc(=O)c(=O)[nH]n3C)CS[C@H]12)c1csc(N)n1` [ceftriaxone], which MIC90 [1] is on record?
Answer: 500 µg/mL (≈ 902 µM)

Question: Which IC50 at 48 h [2] does the source give for `CNC(C)C1CCC(N)C(OC2C(N)CC(N)C(OC3OCC(C)(O)C(NC)C3O)C2O)O1` (stereo not drawn) [gentamicin sulfate, reference compound] here?
Answer: 1440 ± 390 µg/mL

Question: And the MIC50 [3]?
Answer: 0.26 ± 0.08 µg/mL

Question: And the MIC50 [4]?
Answer: 0.73 ± 0.2 µg/mL

Question: With `CC(C)=CCC1C(=O)C(C(=O)CC(C)C)=C(O)C(O)(CC=C(C)C)C1=O` (stereo not drawn) [humulone] as the molecule, how does the “Solubility in aqueous medium (in words)” value [5] read?
Answer: highest

Question: And the solubility [5]?
Answer: ~1000 µg/mL (≈ 2760 µM)

Question: What about the “Selectivity index (SI), quotient of IC50 and MIC50” value (“Selectivity index (SI), quotient” below) [4] of the same molecule?
Answer: around 6

Question: And the IC50 [6]?
Answer: 13.2 to 15.5 µg/mL

Question: With `COc1cc(O)c(CC=C(C)C)c2c1C(=O)CC(c1ccc(O)cc1)O2` (stereo not drawn) [isoxanthohumol] as the molecule, how does the “Solubility in aqueous medium (in words)” value [5] read?
Answer: minimal; also recorded: moderately dissolved; also recorded: limited solubility

Question: And the “Times less effective than xanthohumol” value [7]?
Answer: 35 times

Question: What about the “Effect compared with xanthohumol (in words)” value [8] of the same molecule?
Answer: comparable effect

Question: Which results are given for `CC(C)=CCC1=C(O)C(C(=O)CC(C)C)=C(O)C(CC=C(C)C)(CC=C(C)C)C1=O` [lupulone]?
Answer: IC50 at 48 h [2]: 1.5 ± 0.034 µg/mL (≈ 3.62 µM); solubility [5]: ~1000 µg/mL (≈ 2410 µM); MIC50 [3]: 1.5 ± 0.48 µg/mL (≈ 3.62 µM); MIC50 [4]: 0.1 ± 0.0029 µg/mL (≈ 0.241 µM); IC50 [6]: 2.4 to 8.1 µg/mL

Question: For `[H]/N=C(/N)N[C@H]1[C@H](O)[C@@H](O)[C@H](O[C@@H]2O[C@@H](C)[C@](O)(C=O)[C@H]2O[C@@H]2O[C@@H](CO)[C@H](O)[C@@H](O)[C@@H]2NC)[C@@H](N/C(N)=N\[H])[C@@H]1O` [streptomycin], which MIC90 [1] is on record?
Answer: 500 µg/mL (≈ 860 µM)

Question: For `COc1cc(O)c(CC=C(C)C)c(O)c1C(=O)/C=C/c1ccc(O)cc1` [xanthohumol], which IC50 [9] is on record?
Answer: 26.56 µg/mL (≈ 74.9 µM)

Question: What about the “Solubility in aqueous medium (in words)” value [5] of the same molecule?
Answer: minimal; also recorded: only a small proportion of xanthohumol could be recovered

Question: What about the “Solubility in aqueous medium (in words)” value ([5]; listed as Xanthohumol) of the same molecule?
Answer: limited solubility

Question: And the “Selectivity index (SI), quotient” value ([3]; IC50 UMNSAH/DF-1 / MIC50 M. luteus)?
Answer: 5.5 ± 0.36

Question: What about the MIC50 [3] of the same molecule?
Answer: 0.95 ± 0.04 µg/mL (≈ 2.68 µM)

Question: What about the IC50 [7, 11] of the same molecule?
Answer: 0.52 µM

Question: And the “Selectivity index (SI), quotient” value [4]?
Answer: around 6

Question: And the IC50 [8, 11]?
Answer: 13.3 µM

Question: What about the IC50 [10] of the same molecule?
Answer: 211 µM
